The target of data set [1] is Poly [ADP-ribose] polymerase 1 (Mus musculus, UniProt P11103). The data set is described as follows: Inhibition of recombinant mouse PARP-1 incubated for 16 hrs in presence of NAD+ by liquid scintillation spectrometry based scintillation proximity assay. (In general: SPA uses beads or plates that emit light when radiolabelled molecules are held near them.)
Data set [2] deals with Poly [ADP-ribose] polymerase 2 (Homo sapiens, UniProt Q9UGN5). Briefly: Inhibition of GST-tagged human PARP2 incubated for 30 mins by chemiluminescence based UV/visible spectrophotometric analysis.
Poly [ADP-ribose] polymerase 2, sequence (Q9UGN5 whole entry): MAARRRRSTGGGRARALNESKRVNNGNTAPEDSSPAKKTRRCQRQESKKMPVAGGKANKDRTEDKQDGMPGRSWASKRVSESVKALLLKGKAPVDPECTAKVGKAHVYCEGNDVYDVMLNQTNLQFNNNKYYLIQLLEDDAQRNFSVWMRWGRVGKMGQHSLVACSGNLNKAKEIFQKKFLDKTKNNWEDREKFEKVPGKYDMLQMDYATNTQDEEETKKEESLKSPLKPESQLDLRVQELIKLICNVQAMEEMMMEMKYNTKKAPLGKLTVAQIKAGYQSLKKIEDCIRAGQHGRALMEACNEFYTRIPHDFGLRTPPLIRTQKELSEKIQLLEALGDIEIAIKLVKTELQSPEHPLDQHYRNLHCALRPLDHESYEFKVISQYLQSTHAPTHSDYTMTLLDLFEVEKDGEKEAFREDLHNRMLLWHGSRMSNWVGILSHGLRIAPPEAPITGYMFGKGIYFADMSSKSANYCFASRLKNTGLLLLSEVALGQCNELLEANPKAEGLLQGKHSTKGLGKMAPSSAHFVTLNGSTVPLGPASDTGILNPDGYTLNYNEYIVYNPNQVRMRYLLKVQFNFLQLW
Data set [3] relates to SK-OV-3. Briefly: animal or person. The note with it: Mus musculus, SK-OV-3, po, 744 h, read-out: TGI.
Description: Antitumor activity against human SK-OV-3 cells xenografted in female BALB/c nude mouse assessed as tumor growth inhibition at 50 mg/kg, po administered via gavage once daily for 31 days relative to control
Data set [4] concerns the target Poly [ADP-ribose] polymerase 1 (Homo sapiens, UniProt P09874). Briefly: Inhibition of GST-tagged human PARP1 incubated for 30 mins by chemiluminescence based UV/visible spectrophotometric analysis.
The subject of the next data set is SiHa. Briefly: cells. The settings on record: Homo sapiens, 72 h.
For data set [5], the system named is SK-OV-3. The data set is described as follows: cells. The note with it: Homo sapiens, SK-OV-3, 72 h.
Description: Antiproliferative activity against human SK-OV-3 cells assessed as inhibition of cell proliferation incubated for 72 hrs
The test system of a further data set is CAPAN-1. The data set is described as follows: cells. The settings on record: Homo sapiens, CAPAN-1, 72 h.
Data set [6] can be described thus: in vitro. The note with it: human, NCM460 cells.
Description: Cytotoxicity against human NCM460 cells assessed as inhibition of cell proliferation incubated for 72 hrs
Another data set has as its system C-33-A. Briefly: cells. The settings on record: Homo sapiens, 72 h.
Another data set relates to HCT-116. Briefly: cells. The settings on record: Homo sapiens, HCT-116, 72 h.
The nature of data set [7]: Inhibition of PARP1 Ala755Gln, Gln759Ser and Val762Ile mutant (unknown origin) incubated for 1 hrs in presence of NAD and DNA by ELISA. In general terms: ELISA stands for enzyme-linked immunosorbent assay.
Another data set relates to A549. The data set is described as follows: cells. The settings on record: Homo sapiens, A549, 72 h.
Another data set relates to HCC1937. Briefly: cells. The settings on record: Homo sapiens, HCC1937, 72 h.
The nature of data set [8]: in vitro. The settings on record: human, H8 cells.
Description: Cytotoxicity against human H8 cells assessed as inhibition of cell proliferation incubated for 72 hrs

Experimental findings from ChEMBL document CHEMBL5512675, “Design of Selective PARP-1 Inhibitors and Antitumor Studies” (J Med Chem, 2024) are described below.

The structures appear in SMILES notation.

Poly [ADP-ribose] polymerase 1 (Homo sapiens, UniProt P09874), sequence (P09874 whole entry): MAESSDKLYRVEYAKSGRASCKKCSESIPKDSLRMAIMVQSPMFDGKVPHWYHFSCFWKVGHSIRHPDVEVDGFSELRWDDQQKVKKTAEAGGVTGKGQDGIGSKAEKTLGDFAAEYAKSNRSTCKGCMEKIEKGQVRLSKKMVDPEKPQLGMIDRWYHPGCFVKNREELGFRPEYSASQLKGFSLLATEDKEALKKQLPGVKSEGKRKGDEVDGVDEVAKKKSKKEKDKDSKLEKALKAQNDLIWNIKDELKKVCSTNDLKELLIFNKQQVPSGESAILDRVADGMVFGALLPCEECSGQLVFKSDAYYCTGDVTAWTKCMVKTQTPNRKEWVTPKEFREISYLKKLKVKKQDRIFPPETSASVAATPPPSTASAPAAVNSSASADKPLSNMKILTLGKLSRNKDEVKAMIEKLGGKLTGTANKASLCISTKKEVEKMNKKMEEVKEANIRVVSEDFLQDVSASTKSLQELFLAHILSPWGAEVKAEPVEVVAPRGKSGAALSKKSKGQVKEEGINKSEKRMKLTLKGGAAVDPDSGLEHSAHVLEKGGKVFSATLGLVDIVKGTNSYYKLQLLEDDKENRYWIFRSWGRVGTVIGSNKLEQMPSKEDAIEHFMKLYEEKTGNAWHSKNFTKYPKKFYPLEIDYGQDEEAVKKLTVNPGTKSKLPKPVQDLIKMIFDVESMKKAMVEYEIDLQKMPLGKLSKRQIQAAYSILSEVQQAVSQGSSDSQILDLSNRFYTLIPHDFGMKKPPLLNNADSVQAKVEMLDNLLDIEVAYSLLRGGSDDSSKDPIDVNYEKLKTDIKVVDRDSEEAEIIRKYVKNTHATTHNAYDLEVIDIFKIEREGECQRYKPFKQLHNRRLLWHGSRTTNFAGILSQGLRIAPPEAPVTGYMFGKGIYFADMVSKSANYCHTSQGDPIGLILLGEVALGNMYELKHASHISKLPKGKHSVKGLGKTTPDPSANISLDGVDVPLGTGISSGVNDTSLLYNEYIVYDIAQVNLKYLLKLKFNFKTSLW
Poly [ADP-ribose] polymerase 1 (Mus musculus, UniProt P11103), sequence (P11103 whole entry): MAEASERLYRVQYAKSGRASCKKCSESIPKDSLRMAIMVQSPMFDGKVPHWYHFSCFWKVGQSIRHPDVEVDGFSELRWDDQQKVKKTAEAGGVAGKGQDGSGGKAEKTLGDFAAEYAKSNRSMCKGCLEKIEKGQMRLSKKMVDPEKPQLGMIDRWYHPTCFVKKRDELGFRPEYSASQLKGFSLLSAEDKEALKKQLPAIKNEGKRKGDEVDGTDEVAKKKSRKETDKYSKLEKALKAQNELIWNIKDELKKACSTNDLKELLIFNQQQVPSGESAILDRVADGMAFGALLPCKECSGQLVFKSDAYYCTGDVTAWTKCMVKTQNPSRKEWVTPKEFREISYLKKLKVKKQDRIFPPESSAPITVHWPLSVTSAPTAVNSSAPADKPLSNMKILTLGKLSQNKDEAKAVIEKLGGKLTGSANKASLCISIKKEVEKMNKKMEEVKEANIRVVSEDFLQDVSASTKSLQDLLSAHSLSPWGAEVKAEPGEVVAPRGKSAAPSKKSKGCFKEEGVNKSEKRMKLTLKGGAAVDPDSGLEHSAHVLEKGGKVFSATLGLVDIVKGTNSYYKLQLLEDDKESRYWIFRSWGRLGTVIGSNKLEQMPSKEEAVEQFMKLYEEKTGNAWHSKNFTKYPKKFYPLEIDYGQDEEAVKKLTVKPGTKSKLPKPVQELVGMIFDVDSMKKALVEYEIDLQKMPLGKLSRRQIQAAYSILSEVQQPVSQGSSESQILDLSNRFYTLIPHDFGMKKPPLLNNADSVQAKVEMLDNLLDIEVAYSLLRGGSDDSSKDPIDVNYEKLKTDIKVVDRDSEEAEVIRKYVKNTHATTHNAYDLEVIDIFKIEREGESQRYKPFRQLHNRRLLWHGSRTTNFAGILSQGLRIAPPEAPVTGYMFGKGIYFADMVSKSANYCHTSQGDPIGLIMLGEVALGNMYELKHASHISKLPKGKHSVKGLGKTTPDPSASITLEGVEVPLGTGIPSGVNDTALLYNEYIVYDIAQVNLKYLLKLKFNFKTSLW
Description for A549: Antiproliferative activity against human A549 cells assessed as inhibition of cell proliferation incubated for 72 hrs
Description for C-33-A: Antiproliferative activity against human C-33-A cells assessed as inhibition of cell proliferation incubated for 72 hrs
Description for CAPAN-1: Antiproliferative activity against human CAPAN-1 cells harboring BRCA1 mutant assessed as inhibition of cell proliferation incubated for 72 hrs
Description for HCC1937: Antiproliferative activity against human HCC1937 cells harboring BRCA2 mutant assessed as inhibition of cell proliferation incubated for 72 hrs
Description for HCT-116: Antiproliferative activity against human HCT-116 cells assessed as inhibition of cell proliferation incubated for 72 hrs
Description for SiHa: Antiproliferative activity against human SiHa cells assessed as inhibition of cell proliferation incubated for 72 hrs

On to `Cn1cccc1/C=C1\C(=O)NC(=O)c2ccccc21`, for which the IC50 in data set [1] was 4790 nM.
In the case of `COc1cc(/C=N/NC(N)=S)c(Br)c(Br)c1OC`, the IC50 stood at 1560 nM in data set [2] and 42.9 nM in data set [4]. In addition, in the data set on SK-OV-3 [3], the inhibition in vivo at 50 mg/kg is 57.4%.
On to `COc1cc(-c2nc3c(C(N)=O)cccc3[nH]2)cc(Br)c1OC(=O)C(C)(C)C`, for which the results for the 50% inhibitory concentration (IC50) in data set [2] and in [4] were 2070 nM and 33.2 nM, respectively.
On the same counts, the results for `COc1cc(-c2nc3c(C(N)=O)cccc3[nH]2)cc(Br)c1OS(=O)(=O)c1c(C)cc(C)cc1C` are 1780 nM and 33.7 nM.
On the same counts, the results for `CCCS(=O)(=O)Oc1c(Br)cc(-c2nc3c(C(N)=O)cccc3[nH]2)cc1OC` are 760 nM and 50.5 nM.
As to `O=C(c1cc(Cc2n[nH]c(=O)c3ccccc23)ccc1F)N1CCN(C(=O)C2CC2)CC1` [OLAPARIB], the IC50 was more than 200000 nM in the data set on SiHa; 167000 nM in the data set on SK-OV-3 [5]; 60700 nM with CAPAN-1; more than 200000 nM with C-33-A; more than 200000 nM in the data set with HCT-116; 10.4 nM in data set [7]. Moreover, the IC50 in the data set with A549 was more than 200000 nM; in the data set on HCC1937 it was 22000 nM. For the same molecule, the half-inhibitory concentration (IC50) at 72 h in the data set “in vitro [6]” and in the data set “in vitro [8]” was more than 200000 nM in each case.

The term IC50 denotes the point on the concentration scale where inhibition reaches its midpoint.
